By IC50 is commonly meant the point on the concentration scale where inhibition reaches its midpoint.

Where a name gives a salt, the structure may show the parent alone.

Test [1] has as its target T1, angiotensin-converting enzyme (Oryctolagus cuniculus, UniProt P12822).
T1 construct: angiotensin-converting enzyme preparation (from lungs of adult male rabbits); from tissue; host or cells: lungs of adult male rabbits
T1 sequence (P12822 34-1310): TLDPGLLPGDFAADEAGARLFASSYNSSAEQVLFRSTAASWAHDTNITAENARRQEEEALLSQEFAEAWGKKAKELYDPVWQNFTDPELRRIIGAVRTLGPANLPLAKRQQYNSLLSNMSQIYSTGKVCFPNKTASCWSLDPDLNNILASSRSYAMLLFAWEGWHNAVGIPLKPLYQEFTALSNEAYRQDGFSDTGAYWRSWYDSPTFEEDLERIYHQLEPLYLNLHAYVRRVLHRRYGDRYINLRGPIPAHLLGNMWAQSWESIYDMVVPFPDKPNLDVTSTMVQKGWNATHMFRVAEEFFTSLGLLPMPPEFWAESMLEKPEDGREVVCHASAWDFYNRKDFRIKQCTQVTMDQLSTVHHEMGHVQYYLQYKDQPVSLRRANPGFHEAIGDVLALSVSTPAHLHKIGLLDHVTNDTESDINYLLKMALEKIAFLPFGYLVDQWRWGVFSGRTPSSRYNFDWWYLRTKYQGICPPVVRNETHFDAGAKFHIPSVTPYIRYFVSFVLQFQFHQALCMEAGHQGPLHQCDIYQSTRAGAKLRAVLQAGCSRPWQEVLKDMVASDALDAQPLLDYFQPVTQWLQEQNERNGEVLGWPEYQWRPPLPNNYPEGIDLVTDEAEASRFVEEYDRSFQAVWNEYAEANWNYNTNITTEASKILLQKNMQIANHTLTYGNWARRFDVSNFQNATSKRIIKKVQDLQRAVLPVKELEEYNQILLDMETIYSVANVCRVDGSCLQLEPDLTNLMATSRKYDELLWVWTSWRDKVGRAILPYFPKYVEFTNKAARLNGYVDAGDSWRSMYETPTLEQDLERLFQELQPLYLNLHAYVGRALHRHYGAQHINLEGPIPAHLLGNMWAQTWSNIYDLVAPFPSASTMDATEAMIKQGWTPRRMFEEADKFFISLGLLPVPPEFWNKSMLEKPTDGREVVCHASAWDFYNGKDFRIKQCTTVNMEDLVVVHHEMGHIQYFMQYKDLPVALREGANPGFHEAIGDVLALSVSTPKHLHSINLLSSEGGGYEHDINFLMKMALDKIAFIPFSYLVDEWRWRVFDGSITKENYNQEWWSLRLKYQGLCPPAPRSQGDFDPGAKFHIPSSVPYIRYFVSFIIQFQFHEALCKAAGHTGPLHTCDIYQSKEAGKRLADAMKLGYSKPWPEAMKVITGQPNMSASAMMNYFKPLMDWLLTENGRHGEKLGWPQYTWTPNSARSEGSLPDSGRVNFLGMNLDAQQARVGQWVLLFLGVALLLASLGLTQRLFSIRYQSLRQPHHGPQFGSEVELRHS
Put plainly: in vitro inhibition of the angiotensin-converting enzyme (hippuryl-histidyl-leucine substrate). The settings on record: in vitro test; enzyme from lungs of adult male rabbits; 37° C., 30 minutes. Format: biochemical, rabbit. On the procedure:
Biophys. Acta 293, 451 (1973). According to this method, said compounds are dissolved at about 1 mM concentration in phosphate buffer. […] Said solutions are incubated at 37° C. for 30 minutes and combined with 0.75 ml of 0.6N aqueous sodium hydroxide to stop further reaction. Then 100 microliters of a 0.2% solution of o-phthalaldehyde in methanol are added at room temperature, and 10 minutes later 100 microliters of 6N hydrochloric acid. These samples are read against water in a spectrophotometer set at 360 nm, and the optical densities thereof estimated. They are corrected for the standard curve via a conversion factor expressing nanomoles of histidyl-leucine formed during said 30 minute incubation period. The results are plotted against concentration to determine the IC50, i.e., the concentration of the compound which gives half the activity of the control sample. Illustrative of the invention, and according to the test methods previously described, the following angiotensin-converting enzyme inhibition data is obtained.

Test [2] has as its system angiotensin-converting enzyme. Put plainly: in vivo inhibition of the Angiotensin I induced pressor response in anesthetized normotensive rats. To be noted: p.o. administration of 3.3 mg/kg (rat), at 1 hr. On the procedure: Angiotensin I is hydrolyzed by the action of said converting enzyme to the potent pressor substance Angiotensin II. The inhibition of said enzyme prevents the generation of Angiotensin II from I and, therefore, attenuates any pressor response following an Angiotensin I challenge.
The corresponding in vivo test is performed with male, normotensive rats, which are anesthetized with sodium 5-ethyl-5-(1-methylpropyl)-2-thiobarbiturate. A femoral artery and saphenous vein are cannulated respectively for direct blood pressure measurement and the i.v. administration of Angiotensin I and a compound of this invention. After the basal blood pressure is stabilized, pressor responses to 3 challenges of 333 ng/kg angiotensin I i.v., at 5 minute intervals, are obtained. Such pressure resonses are usually again obtained at 5, 10, 15, 30 and 60 minutes after i.v. administration or 1, 2, 3 and 4 hours after p.o. administration of the compound to be tested, and compared with the initial responses. Any observed decrease of said pressor response caused by the compounds of the invention is an indication of Angiotensin I converting enzyme inhibition.
Illustrative of the invention, and according to the test methods previously described, the following angiotensin-converting enzyme inhibition data is obtained.

`O=C(O)CN1C(=O)[C@@H](N[C@@H](CCc2ccccc2)C(=O)O)CCCc2ccccc21` [example 7a, 1-carboxymethyl-3-(1-carboxy-3-phenyl-(1S)-propylamino)-3,4,5,6-tetrahydro-(3S)-1-benzazocin-2-1H-one hydrochloride] displayed an IC50 in test [1] of 7.5 nM.
`CCOC(=O)[C@H](CCc1ccccc1)N[C@H]1CCCc2ccccc2N(CC(=O)O)C1=O` [example 8a, 1-carboxymethyl-3-(1-ethoxycarbonyl-3-phenyl-(1S)-propylamino-3,4,5,6-tetrahydro-(3S)-1-benzazocin-2-1H-one hydrochloride]: the “inhibition of Angiotensin I pressor response (in vivo test)” value in test [2] worked out at 69%.
In test [1], `NCCCC[C@H](N[C@H]1CCCc2ccccc2N(CC(=O)O)C1=O)C(=O)O` [S,S compound of example 12, 3-[(5-amino-1-(S)-carboxypentyl)amino]-1-carboxymethyl-3,4,5,6-tetrahydro-(3S)-1-benzazocin-2-1H-one hydrochloride] yielded an IC50 of 27 nM.

The values above are taken from patent US4537885A, “Certain benzazocinone and benzazoninone derivatives” (Ciba Geigy Corporation, priority 1984, dated 1985).
